Reference: patent publication US7258981B2, “Sensitive proteasome sensor constructs and methods for their design and use” (Clontech Laboratories, Inc., priority 2003, dated 2007)
Like-named read-outs stand apart in the source and are kept apart here. Square brackets hold non-standard residues; d marks the D form. Peptide text beside a SMILES is read from it. * marks the point of attachment. Nle = CCCC[C@H](N)C(=O)O; Cbz = O=C(OCc1ccccc1)*

How the values were obtained:
proteasome [1] = assay: Inventive proteasome sensor sensitivity (detection of proteasome inhibitors); type: cell-based; settings: six hour after treatment as benchmark; broadest stated range
Description: In determining sensitivity of his system, in the present application six hour after treating a cell with a proteasome modifying treatment is employed as a benchmark for sensitivity.

proteasome [2] = assay: HEK 293 cells transiently transfected with ZsGreen constructs, MFI by flow cytometry; type: cell-based; settings: HEK 293, transient transfection
Method: (FIGS. 2A&B) To establish if the above proteins are substrate for degradation by the proteasome, HEK 293 cells were transiently transfected with the plasmids and the mean fluorescence intensity (MFI) of the cells was measured by flow cytometry 16 hours after transfection. […] To distinguish between these two possibilities, the transiently transfected cells were treated with ALLN, a well-characterized reversible inhibitor of proteasomal degradation.

proteasome [3] = assay: Stable HEK 293 clone expressing ZsGreend410, fluorescence with or without ALLN; type: cell-based
proteasome [4] = settings: GFP-CL1 fusion; flow cytometry; cited from earlier work
proteasome [5] = settings: GFP-MODC fragment fusion; at 20 hours; flow cytometry; cited from earlier work
proteasome [6] = settings: GFP-Ubiquitin fusion; at 15 hours; flow cytometry (FACS); cited from earlier work

CCCC[C@@H](C=O)NC(=O)[C@H](CC(C)C)NC(=O)[C@H](CC(C)C)NC(C)=O [ALLN] (Ac-Leu-Leu-[Nle]-aldehyde)
detection level of inhibitor by the inventive sensor (proteasome [1]): 50 to 2500 nM
effect of treatment on fluorescence of ZsGreen expressing cells (proteasome [2]): only marginally increases
effect of treatment on fluorescence of pZsGreendl and pZsGreend410-transfected cells (proteasome [2]): increased in a time-dependent fashion
delay before the appearance of fluorescence (proteasome [3]; ZsGreend410-expressing clone, stable transfection): 3 h
effect of treatment on fluorescence of cells stably expressing ZsGreend410 (proteasome [3]; stable HEK 293 clone): sharply increases

CC[C@H](C)[C@H](NC(=O)[C@H]([C@@H](C)CC)N(C)C(C)=O)C(=O)N[C@H](C(=O)N[C@@H](CC(C)C)C(=O)[C@@]1(C)CO1)[C@@H](C)O [Epoxomycin]
detection level of inhibitor by the inventive sensor (proteasome [1]): 1 to 30 nM

CC(=O)N[C@@H](CSC(=O)[C@]1([C@@H](O)C(C)C)NC(=O)[C@H](C)[C@@H]1O)C(=O)O [Lactacystin]
sensitivity achieved (inhibitor concentration) (proteasome [4]): 845 nM
sensitivity achieved (inhibitor concentration) (proteasome [5]): 2.5 µM
detection level of inhibitor by the inventive sensor (proteasome [1]): 10 to 500 nM

CC(C)C[C@@H](C=O)NC(=O)[C@H](CC(C)C)NC(=O)[C@H](CC(C)C)NC(=O)OCc1ccccc1 [MG132] (Cbz-Leu-Leu-Leu-aldehyde)
sensitivity achieved (inhibitor concentration) (proteasome [5]): 2.5 µM

CC(C)C[C@@H](/C=C/S(C)(=O)=O)NC(=O)[C@H](CC(C)C)NC(=O)[C@H](CC(C)C)NC(=O)OCc1ccccc1 [Z-L3-VS]
sensitivity achieved (inhibitor concentration) (proteasome [6]): 4 µM
